This note sets out measurements from PMC9410420, “Novel Labdane Diterpenes-Based Synthetic Derivatives: Identification of a Bifunctional Vasodilator That Inhibits CaV1.2 and Stimulates KCa1.1 Channels” (Marine Drugs, 2022).

Data set [1] has as its system rat aorta rings. As to the kind of experiment: Phenylephrine-induced contraction of rat aorta rings (pharmaco-mechanical coupling). The settings on record: for Emax: Rattus norvegicus; for Emax / IC50: 0.3 µM phenylephrine. How it is done: (§1) The abdominal aorta was gently cleaned of adipose and connective tissues and cut into 3-mm wide rings. These were mounted in organ baths between two parallel, L-shaped, stainless-steel hooks, with one fixed in place and the other connected to an isometric transducer. Rings were allowed to equilibrate for 60 min in modified Krebs-Henseleit solution (composition in mM: 118 NaCl, 4.75 KCl, 1.19 KH2PO4, 1.19 MgSO4, 25 NaHCO3, 11.5 glucose, 2.5 CaCl2, gassed with a 95% O2–5% CO2 gas mixture to create a pH of 7.4) under a passive tension of 1 g. During this equilibration period, the solution was changed every 15 min. Isometric tension was recorded using a digital PowerLab data acquisition system (PowerLab 8/30; ADInstruments). Ring viability was assessed by recording the response to 0.3 µM phenylephrine and 60 mM KCl. Where needed, the endothelium was removed by gently rubbing the lumen of the ring with a forceps tip. This procedure was validated by adding 10 µM acetylcholine at the plateau of phenylephrine-induced contraction; a relaxation greater than 70% or less than 10% denoted the presence or absence of functional endothelium, respectively.
(§2) Aorta rings were pre-contracted pharmaco-mechanically using 0.3 µM phenylephrine and electromechanically using 25–30 mM or 60 mM KCl. Once the contraction reached a plateau, the compound was added cumulatively into the organ bath. […] The response was calculated as the percentage of phenylephrine- or KCl-induced contraction (taken as 100%).

The subject of data set [2] is rat aorta rings. As to the kind of experiment: KCl-induced contraction of rat aorta rings (electromechanical coupling). How it is done: as §1, §2
Data set [3] has as its target T1, CaV1.2 channel (Rattus norvegicus, UniProt P22002).
T1 construct: smooth muscle cells were freshly isolated; endogenous in cells; host or cells: freshly isolated rat tail main artery smooth muscle cells
The experiment in a line: Whole-cell patch-clamp, Ba2+ current through CaV1.2 channels (IBa1.2) in rat tail artery myocytes. The following applies: for Emax: read-out: Emax (percent maximal inhibition), IBa1.2; for IC50: read-out: IC50, IBa1.2 inhibition. The class given is cell-based. As to the method:
The tail main artery was dissected free of its connective tissue, and smooth muscle cells were freshly isolated under the following conditions. […] Cells stored in 0.05 mM Ca^2+ external solution containing 20 mM taurine and 0.5 mg/mL BSA at 4 °C under normal air were used for experiments within two days after isolation.
An Axopatch 200B patch-clamp amplifier (Molecular Devices Corporation, Sunnyvale, CA, USA) was used to generate and apply voltage pulses to the clamped cells and record the corresponding membrane currents. Recording electrodes were pulled from borosilicate glass capillaries (WPI, Berlin, Germany) and fire-polished to obtain a pipette resistance of 2–4 MΩ, when filled with an internal solution. At the beginning of each experiment, the junction potential between the pipette and bath solution was electronically adjusted to zero. […] Electrophysiological responses were tested at room temperature (20–22 °C).
The conventional whole-cell patch-clamp method was employed to voltage-clamp smooth muscle cells. The internal solution consisted of (in mM) 100 CsCl, 10 HEPES, 11 EGTA, 2 MgCl2, 1 CaCl2 (pCa 8.4), 5 Na pyruvate, 5 succinic acid, 5 oxaloacetic acid, 3 Na2ATP, and 5 phosphocreatine; pH was adjusted to 7.4 with CsOH. IBa1.2 was recorded in an external solution containing 30 mM TEA and 5 mM Ba^2+. […] Data were collected once the current amplitude had been stabilized (usually 7–10 min after the whole-cell configuration had been obtained).
(The patch-clamp technique gives a direct electrical read-out from membranes.)

For data set [4], the target named is T1, CaV1.2 channel. As to the kind of experiment: Voltage dependence of CaV1.2 channel steady-state activation and inactivation in rat tail artery myocytes. It counts as cell-based. The settings on record: for Slope inact (slope factor of inactivation) / V50 inact (50% inactivation potential): Vh −80 mV. The source says:
An Axopatch 200B patch-clamp amplifier (Molecular Devices Corporation, Sunnyvale, CA, USA) was used to generate and apply voltage pulses to the clamped cells and record the corresponding membrane currents. Recording electrodes were pulled from borosilicate glass capillaries (WPI, Berlin, Germany) and fire-polished to obtain a pipette resistance of 2–4 MΩ, when filled with an internal solution. At the beginning of each experiment, the junction potential between the pipette and bath solution was electronically adjusted to zero. After compensation for whole-cell capacitance and series resistance (between 70% and 75%), current signals were low-pass filtered at 1 kHz and digitized at 3 kHz, before being stored on a computer hard disk. Electrophysiological responses were tested at room temperature (20–22 °C).
Cells were continuously superfused with an external solution containing 0.1 mM Ca^2+ and 30 mM TEA using a peristaltic pump (LKB 2132, Bromma, Sweden) at a flow rate of 400 µL/min. The conventional whole-cell patch-clamp method was employed to voltage-clamp smooth muscle cells. The internal solution consisted of (in mM) 100 CsCl, 10 HEPES, 11 EGTA, 2 MgCl2, 1 CaCl2 (pCa 8.4), 5 Na pyruvate, 5 succinic acid, 5 oxaloacetic acid, 3 Na2ATP, and 5 phosphocreatine; pH was adjusted to 7.4 with CsOH. IBa1.2 was recorded in an external solution containing 30 mM TEA and 5 mM Ba^2+. The current was elicited with 250-ms clamp pulses (0.067 Hz) to 10 mV, from a Vh of −50 mV. Data were collected once the current amplitude had been stabilized (usually 7–10 min after the whole-cell configuration had been obtained).
Steady-state activation curves were derived from the current–voltage relationships. Conductance (G) was calculated from the equation G = IBa1.2/(Em − Erev), where: IBa1.2 is the peak current elicited by depolarizing test pulses between −50 mV and 40 mV from a Vh of −50 mV; Em is the membrane potential; and Erev is the reversal potential (estimated from the extrapolated current-voltage curves in Figure 2). Gmax is the maximal Ba^2+ conductance (calculated at potentials ≤40 mV). The G/Gmax ratio was plotted against the membrane potential and fitted to the Boltzmann equation [40]. Steady-state inactivation curves were obtained using a double-pulse protocol. Once various levels of the conditioning potential had been applied for 5 s, followed by a short (5-ms) return to the Vh of −80 mV, a test pulse (250 ms) to 10 mV was delivered to evoke the current. The delay between the conditioning potential and the test pulse allowed the full or near-complete deactivation of the channels, simultaneously avoiding partial recovery from inactivation. K^+ currents were blocked with 30 mM TEA in the external solution and Cs^+ in the internal solution. […] The osmolarity of the 30 mM TEA- and 5 mM Ba^2+-containing external solution (320 mosmol, adjusted with NaCl if required) and that of the internal solution (290 mosmol) were measured with an osmometer (Osmostat OM 6020, Menarini Diagnostics, Florence, Italy).

Where [5] appears, read: endothelium-denuded rat aorta rings pre-contracted by 25 mM KCl, read-out: Emax (percent maximal inhibition), KCl 25 mM-induced contraction.
Setting [6] is: endothelium-denuded rat aorta rings pre-contracted by 60 mM KCl, read-out: Emax (percent maximal inhibition), KCl 60 mM-induced contraction.
Where [7] appears, read: endothelium-denuded rat aorta rings pre-contracted by 60 mM KCl, read-out: IC50, KCl 60 mM-induced contraction.
[8] abbreviates: endothelium-denuded rat aorta rings, read-out: Emax (percent maximal inhibition), phenylephrine-induced contraction, −Endothelium.
[9] abbreviates: endothelium-intact rat aorta rings, read-out: Emax (percent maximal inhibition), phenylephrine-induced contraction, +Endothelium.
Setting [10] is: endothelium-denuded rat aorta rings.
[11] abbreviates: endothelium-denuded rat aorta rings pre-contracted by 25 mM KCl, read-out: IC50, KCl 25 mM-induced contraction.

As a reminder, the Emax is the size of the effect at its maximum, as opposed to the concentration needed. One may read the IC50 as the midpoint of a concentration-inhibition curve.

T1 sequence (P22002 whole entry): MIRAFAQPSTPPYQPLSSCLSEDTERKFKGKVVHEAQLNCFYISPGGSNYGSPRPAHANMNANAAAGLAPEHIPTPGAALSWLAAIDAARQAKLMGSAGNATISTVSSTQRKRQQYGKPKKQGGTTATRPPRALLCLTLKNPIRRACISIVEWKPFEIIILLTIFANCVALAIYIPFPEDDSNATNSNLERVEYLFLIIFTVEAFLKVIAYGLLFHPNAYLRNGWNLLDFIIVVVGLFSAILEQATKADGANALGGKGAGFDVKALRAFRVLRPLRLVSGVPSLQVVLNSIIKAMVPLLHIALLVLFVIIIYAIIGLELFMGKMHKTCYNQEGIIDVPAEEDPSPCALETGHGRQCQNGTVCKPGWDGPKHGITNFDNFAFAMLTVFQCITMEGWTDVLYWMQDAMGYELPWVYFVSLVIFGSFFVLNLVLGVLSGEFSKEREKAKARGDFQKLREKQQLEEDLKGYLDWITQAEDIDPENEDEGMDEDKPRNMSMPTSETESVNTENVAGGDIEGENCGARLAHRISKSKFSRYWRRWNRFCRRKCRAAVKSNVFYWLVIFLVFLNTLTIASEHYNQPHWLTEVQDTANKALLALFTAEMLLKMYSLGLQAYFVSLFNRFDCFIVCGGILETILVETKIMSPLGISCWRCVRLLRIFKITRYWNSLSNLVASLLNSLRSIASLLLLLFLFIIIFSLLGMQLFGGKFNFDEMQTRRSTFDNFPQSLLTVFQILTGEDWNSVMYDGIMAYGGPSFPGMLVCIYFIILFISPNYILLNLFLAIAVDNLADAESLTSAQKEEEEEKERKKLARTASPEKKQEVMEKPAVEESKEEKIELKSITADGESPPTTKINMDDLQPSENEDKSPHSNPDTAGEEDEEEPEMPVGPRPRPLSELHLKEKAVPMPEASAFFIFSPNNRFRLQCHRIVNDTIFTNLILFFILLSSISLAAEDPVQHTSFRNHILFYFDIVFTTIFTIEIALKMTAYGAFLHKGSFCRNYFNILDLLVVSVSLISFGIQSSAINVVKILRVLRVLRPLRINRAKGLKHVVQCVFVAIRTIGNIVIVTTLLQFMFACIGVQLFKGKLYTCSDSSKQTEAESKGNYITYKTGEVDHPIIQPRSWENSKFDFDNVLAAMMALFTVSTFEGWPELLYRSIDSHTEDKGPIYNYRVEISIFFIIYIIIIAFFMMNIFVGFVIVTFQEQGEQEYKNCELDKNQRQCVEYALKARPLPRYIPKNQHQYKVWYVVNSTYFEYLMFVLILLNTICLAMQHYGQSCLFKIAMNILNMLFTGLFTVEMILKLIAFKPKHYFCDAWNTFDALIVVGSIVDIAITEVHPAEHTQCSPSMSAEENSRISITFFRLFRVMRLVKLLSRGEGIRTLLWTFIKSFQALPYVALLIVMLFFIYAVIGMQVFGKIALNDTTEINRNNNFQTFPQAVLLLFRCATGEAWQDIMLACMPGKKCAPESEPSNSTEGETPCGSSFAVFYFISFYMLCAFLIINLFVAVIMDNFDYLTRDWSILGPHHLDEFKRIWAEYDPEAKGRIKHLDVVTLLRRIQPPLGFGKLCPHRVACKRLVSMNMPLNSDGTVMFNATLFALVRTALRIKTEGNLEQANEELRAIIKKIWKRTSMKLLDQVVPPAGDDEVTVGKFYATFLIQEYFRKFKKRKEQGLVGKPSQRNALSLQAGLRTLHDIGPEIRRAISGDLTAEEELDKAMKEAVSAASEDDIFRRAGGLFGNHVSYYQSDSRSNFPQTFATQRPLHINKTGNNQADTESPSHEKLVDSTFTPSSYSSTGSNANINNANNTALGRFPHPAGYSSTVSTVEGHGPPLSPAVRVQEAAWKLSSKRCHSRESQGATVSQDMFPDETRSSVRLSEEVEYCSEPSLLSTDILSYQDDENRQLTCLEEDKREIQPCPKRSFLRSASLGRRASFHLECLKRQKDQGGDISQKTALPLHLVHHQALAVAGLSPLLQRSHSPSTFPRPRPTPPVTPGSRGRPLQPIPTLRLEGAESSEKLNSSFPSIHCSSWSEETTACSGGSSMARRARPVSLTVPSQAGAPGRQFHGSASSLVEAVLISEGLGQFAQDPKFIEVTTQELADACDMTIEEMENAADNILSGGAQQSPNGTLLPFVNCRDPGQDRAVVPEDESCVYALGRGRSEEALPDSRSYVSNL
T1 sequence (P54290 25-944 partner limits assumed): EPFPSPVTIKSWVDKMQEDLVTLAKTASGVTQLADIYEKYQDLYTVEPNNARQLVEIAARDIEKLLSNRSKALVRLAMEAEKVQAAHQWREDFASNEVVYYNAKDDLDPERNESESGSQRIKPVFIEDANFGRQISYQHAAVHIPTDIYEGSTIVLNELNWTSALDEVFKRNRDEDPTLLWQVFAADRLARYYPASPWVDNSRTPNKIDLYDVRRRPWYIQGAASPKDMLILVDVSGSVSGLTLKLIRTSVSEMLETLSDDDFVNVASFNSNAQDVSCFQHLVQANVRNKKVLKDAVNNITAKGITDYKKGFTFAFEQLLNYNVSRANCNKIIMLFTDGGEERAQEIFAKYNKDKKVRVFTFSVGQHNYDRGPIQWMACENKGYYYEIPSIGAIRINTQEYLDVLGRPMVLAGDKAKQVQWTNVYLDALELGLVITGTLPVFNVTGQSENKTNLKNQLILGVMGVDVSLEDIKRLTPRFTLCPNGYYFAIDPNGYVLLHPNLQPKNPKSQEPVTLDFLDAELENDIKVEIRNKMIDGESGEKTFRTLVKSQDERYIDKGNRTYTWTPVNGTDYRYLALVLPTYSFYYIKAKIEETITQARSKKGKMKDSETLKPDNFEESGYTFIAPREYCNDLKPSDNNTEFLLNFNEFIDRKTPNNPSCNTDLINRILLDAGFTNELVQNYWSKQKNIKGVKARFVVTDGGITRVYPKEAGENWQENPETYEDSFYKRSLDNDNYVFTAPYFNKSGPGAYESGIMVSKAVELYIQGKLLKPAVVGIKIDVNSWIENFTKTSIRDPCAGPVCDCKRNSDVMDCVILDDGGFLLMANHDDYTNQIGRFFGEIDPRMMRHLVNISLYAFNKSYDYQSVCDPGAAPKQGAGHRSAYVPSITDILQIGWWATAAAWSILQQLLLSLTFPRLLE
T1 sequence (P54290 945-1091 partner limits assumed): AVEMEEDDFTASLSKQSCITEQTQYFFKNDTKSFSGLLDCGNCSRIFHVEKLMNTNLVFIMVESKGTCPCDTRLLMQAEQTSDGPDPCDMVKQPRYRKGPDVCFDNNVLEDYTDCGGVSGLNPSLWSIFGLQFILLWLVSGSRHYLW
T1 sequence (P54287 whole entry partner): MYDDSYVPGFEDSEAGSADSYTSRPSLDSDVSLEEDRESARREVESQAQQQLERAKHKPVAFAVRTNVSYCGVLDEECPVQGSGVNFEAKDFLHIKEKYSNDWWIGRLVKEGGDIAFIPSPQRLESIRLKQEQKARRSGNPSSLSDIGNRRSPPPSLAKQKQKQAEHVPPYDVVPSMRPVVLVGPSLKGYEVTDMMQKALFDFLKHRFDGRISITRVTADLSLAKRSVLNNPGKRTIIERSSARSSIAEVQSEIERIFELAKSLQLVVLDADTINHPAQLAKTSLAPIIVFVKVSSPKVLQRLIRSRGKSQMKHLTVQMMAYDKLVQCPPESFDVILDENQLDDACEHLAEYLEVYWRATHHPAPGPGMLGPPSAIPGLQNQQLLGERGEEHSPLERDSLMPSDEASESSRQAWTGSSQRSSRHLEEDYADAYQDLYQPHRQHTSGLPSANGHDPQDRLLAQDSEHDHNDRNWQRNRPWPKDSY

On to `CC1(C)CCCC2(C)C1CCC1(C)OC(=O)CC12` (single isomer, unassigned; (+)) [Compound 5, (+)-sclareolide, reference compound], for which the “Effect on phenylephrine-induced tone in words” value in the data set with rat aorta rings [1] (endothelium-intact rat aorta rings) is reported as “dramatic concentration-dependent increase of phenylephrine-induced tone”. Further, the Emax in the data set with rat aorta rings [2] (setting [5]) came to 45.9 ± 8.5%; with rat aorta rings [2] (setting [6]), 73.5 ± 6.8%; at CaV1.2 channel [3] (pulses to 10 mV from Vh −50 mV), 64.8 ± 6.1%. Moreover, the half-maximal inhibitory concentration (IC50) in the data set with rat aorta rings [2] (setting [7]) is 29.2 ± 6.1 µM; at CaV1.2 channel [3] (pulses to 10 mV from Vh −50 mV) it was about 69 µM.
Turning to `COC(=O)C1=C(C)NC(C)=C([N+](=O)[O-])[C@H]1c1ccccc1C(F)(F)F` [Bay K 8644, (S)-(-)-Bay K 8644, reference compound], on CaV1.2 channel [3] (100 nM, n = 5), the “IBa1.2, % of the control” value is on record as 447 ± 28%.
On to `CC1(C)CCC[C@]2(C)[C@@H](CC(=O)NCc3ccco3)[C@](C)(O)CC[C@@H]12` [Compound 8], for which, at CaV1.2 channel [4] (10 µM compound), the “Slope inact (slope factor of inactivation)” value was −11.51 ± 1.90. Also, on CaV1.2 channel [4] (10 µM compound), the “V50 inact (50% inactivation potential)” value was −30.97 ± 3.49 mV. Also, the “Slope act (slope factor of activation)” value on CaV1.2 channel [4] (30 µM compound) turned out to be 7.61 ± 0.66. Besides, at CaV1.2 channel [4] (30 µM compound), the “V50 act (50% activation potential)” value stood at 0.03 ± 1.35 mV. Also, the maximum response (Emax) with rat aorta rings [1] (setting [8]) was at most 60%; in the data set with rat aorta rings [1] (setting [9]), 15.2 ± 7.9%; with rat aorta rings [2] (setting [5]), 85.8 ± 4.8%; in the data set on rat aorta rings [2] (setting [6]) it was 87.3 ± 4.9%; on CaV1.2 channel [3] (pulses to 10 mV from Vh −50 mV), 92.4 ± 2.2%. The IC50 with rat aorta rings [1] (setting [10]) is about 44.7 µM; in the data set on rat aorta rings [2] (setting [11]), 2.1 ± 0.9 µM; in the data set with rat aorta rings [2] (setting [7]), 6.1 ± 1.6 µM; on CaV1.2 channel [3] (pulses to 10 mV from Vh −50 mV) it was 16.7 ± 3 µM.
Take `CC1(C)CCC[C@]2(C)[C@@H](CC(=O)NCCc3cccc(F)c3)[C@](C)(O)CC[C@@H]12` [Compound 9]: at CaV1.2 channel [4] (10 µM compound), the “Slope act (slope factor of activation)” value is on record as 6.79 ± 0.35. For the same compound, the “V50 act (50% activation potential)” value on CaV1.2 channel [4] (10 µM compound) is recorded as −2.37 ± 0.95 mV. The “Slope inact (slope factor of inactivation)” value on CaV1.2 channel [4] (10 µM compound) is −10.25 ± 1.33. In addition, on CaV1.2 channel [4] (10 µM compound), the “V50 inact (50% inactivation potential)” value is given as −36.46 ± 2.73 mV. The Emax is at most 60% with rat aorta rings [1] (setting [8]); 19.4 ± 23.2% with rat aorta rings [1] (setting [9]); 92.3 ± 0.6% in the data set with rat aorta rings [2] (setting [5]); 92.4 ± 1.3% in the data set on rat aorta rings [2] (setting [6]); 97.8 ± 0.8% on CaV1.2 channel [3] (pulses to 10 mV from Vh −50 mV). For the same compound, the IC50 was about 55 µM in the data set on rat aorta rings [1] (setting [10]), 0.9 ± 0.2 µM in the data set on rat aorta rings [2] (setting [11]), 4.5 ± 0.5 µM in the data set with rat aorta rings [2] (setting [7]) and 15.3 ± 5.3 µM at CaV1.2 channel [3] (pulses to 10 mV from Vh −50 mV).
`CC1(C)CCC[C@]2(C)[C@@H](CCOCc3cccc(Cl)c3)[C@](C)(O)CC[C@@H]12` [Compound 10]: the results for the Emax with rat aorta rings [2] (setting [6]) and at CaV1.2 channel [3] (pulses to 10 mV from Vh −50 mV) were 53.1 ± 13.4% and 86.4 ± 4.9%, respectively. In addition, the IC50 in the data set on rat aorta rings [2] (setting [7]) is about 69.2 µM; at CaV1.2 channel [3] (pulses to 10 mV from Vh −50 mV), 20.8 ± 6.1 µM.
In the case of sclareol [Compound 6], the “Emax (percent maximal inhibition), KCl 60 mM-induced contraction” value in the data set on rat aorta rings [2] (endothelium-denuded rat aorta rings pre-contracted by 60 mM KCl) is recorded as 98.8 ± 1.3 (5) %. In addition, in the data set on rat aorta rings [2] (setting [7]), the 50% inhibitory concentration (IC50) turned out to be 11.9 ± 1.3 µM. On CaV1.2 channel [3] (pulses to 10 mV from Vh −50 mV), the “Emax (percent maximal inhibition), IBa1.2” value was 88.7 ± 4.0 (5) % and the IC50 amounted to 33.2 ± 6.8 µM.
